# Measurements: article doi:10.64898/2025.12.18.695269, “Structural Basis of TACO1-Mediated Efficient Mitochondrial Translation” (bioRxiv, 2025)
# Columns and labels:
# TACO1 [1] = target: T1, TACO1 (Homo sapiens, UniProt Q9BSH4); assay: competition with BODIPY-FL-GTPγS fluorescence binding; settings: pre-incubation with GMPPNP before BODIPY-FL-GTPγS; competitive
# T1 construct: recombinant TACO1
# TACO1 [2] = target: T1, TACO1; assay: fluorescence increase of BODIPY-labelled nucleotide, saturation fit; format: binding; settings: labelled compound; 500 nM TACO1, 0-30 μM ligand, 10 min
Kd (TACO1 [2]),Compound,competition with BODIPY-FL-GTPγS fluorescence binding (TACO1 [1])
,Nc1nc2c(ncn2[C@@H]2O[C@H](COP(=O)(O)OP(=O)(O)NP(=O)(O)O)[C@@H](O)[C@H]2O)c(=O)[nH]1 [GMPPNP],This effect was abolished by pre-incubation with the non-hydrolyzable GTP analog GMPPNP
25 µM,BODIPY-FL-GTPγS,
